Measurements published in patent US8008291B2 (Mimetica Pty Ltd, priority 2008, dated 2011).

What follows are compounds tested against T1, human MC5R (hMC5R) (Homo sapiens, UniProt P33032) (assay: Human MC5R radioligand binding assay (membranes, [125I] NDP-MSH displacement)). Settings: hMC5R binding; tested as trifluoroacetate or hydrochloride salts, or free bases; read-out: MC5R radioligand IC50.
T1 construct: purchased Perkin Elmer RBXMC5M400UA
In short: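 Displacement of [125I]NDP-MSH (radioiodinated in house, HPLC-purified) from hMC5R membranes by test compound measured after 1 hr incubation at 37° C.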

T1 sequence (P33032 whole entry): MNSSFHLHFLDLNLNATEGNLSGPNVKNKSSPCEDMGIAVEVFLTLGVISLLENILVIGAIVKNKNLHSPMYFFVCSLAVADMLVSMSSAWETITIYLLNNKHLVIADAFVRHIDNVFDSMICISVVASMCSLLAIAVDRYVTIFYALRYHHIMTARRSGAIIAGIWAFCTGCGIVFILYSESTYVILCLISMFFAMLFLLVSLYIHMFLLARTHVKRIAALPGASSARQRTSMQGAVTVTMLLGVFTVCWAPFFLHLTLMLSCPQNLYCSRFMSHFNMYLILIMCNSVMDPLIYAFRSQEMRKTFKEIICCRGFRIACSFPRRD

`O=C(NC[C@@H]1CCN(Cc2ccc(Cl)cc2Cl)C(=O)[C@H](CCN2CCCCC2)N1)c1ccc(Cl)c(Cl)c1` [Compound 503, 3,4-dichloro-N-(((3S,5S)-1-(2,4-dichlorobenzyl)-2-oxo-3-(2-(piperidin-1-yl)ethyl)-1,4-diazepan-5-yl)methyl)benzamide] and `O=C(NC[C@@H]1CCN(Cc2ccc(Cl)cc2Cl)C(=O)[C@H](CCN2CCCCC2)N1)c1ccc2cc(Cl)ccc2c1` [Compound 508, 6-chloro-N-(((3S,5S)-1-(2,4-dichlorobenzyl)-2-oxo-3-(2-(piperidin-1-yl)ethyl)-1,4-diazepan-5-yl)methyl)-2-naphthamide] cannot be ordered by IC50: < 1 µM for the first, < 0.1 µM for the second.

`CS(=O)(=O)NCC[C@@H]1N[C@H](CNC(=O)c2ccc(Cl)c(Cl)c2)CCN(Cc2ccc(Cl)cc2Cl)C1=O` [Compound 504, 3,4-dichloro-N-(((3S,5S)-1-(2,4-dichlorobenzyl)-3-(2-(methylsulfonamido)ethyl)-2-oxo-1,4-diazepan-5-yl)methyl)benzamide] and `Cc1ccc(S(=O)(=O)NCC[C@@H]2N[C@H](CNC(=O)c3ccc(Cl)c(Cl)c3)CCN(Cc3ccc(Cl)cc3Cl)C2=O)cc1` [Compound 505, 3,4-dichloro-N-(((3S,5S)-1-(2,4-dichlorobenzyl)-3-(2-(4-methylphenylsulfonamido)ethyl)-2-oxo-1,4-diazepan-5-yl)methyl)benzamide] cannot be ordered by IC50: < 10 µM for the first, < 10 µM for the second.

`CC(C)[C@H](N)C(=O)NCC[C@@H]1N[C@H](CNC(=O)c2ccc(Cl)c(Cl)c2)CCN(Cc2ccc(Cl)cc2Cl)C1=O` [Compound 506, N-(((3S,5S)-3-(2-((S)-2-amino-3-methylbutanamido)ethyl)-1-(2,4-dichlorobenzyl)-2-oxo-1,4-diazepan-5-yl)methyl)-3,4-dichlorobenzamide] and `NCC[C@@H]1N[C@H](CNC(=O)c2ccc3cc(Cl)ccc3c2)CCN(Cc2ccc(Cl)cc2Cl)C1=O` [Compound 507, N-(((3S,5S)-3-(2-aminoethyl)-1-(2,4-dichlorobenzyl)-2-oxo-1,4-diazepan-5-yl)methyl)-6-chloro-2-naphthamide] cannot be ordered by IC50: < 10 µM for the first, < 0.1 µM for the second.

`CCC(CN1CC[C@@H](CNC(=O)c2ccc3cc(Cl)ccc3c2)N[C@@H](CCN)C1=O)c1ccsc1` (stereo partly drawn) [Compound 509, N-(((3S,5S)-3-(2-aminoethyl)-2-oxo-1-(2-(thiophen-3-yl)butyl)-1,4-diazepan-5-yl)methyl)-6-chloro-2-naphthamide] and `CC[C@@H](CN1CC[C@@H](CNC(=O)c2ccc3cc(Cl)ccc3c2)N[C@@H](CCN2CCCCC2)C1=O)c1ccsc1` [Compound 510, 6-chloro-N-(((3S,5S)-2-oxo-3-(2-(piperidin-1-yl)ethyl)-1-((R)-2-(thiophen-3-yl)butyl)-1,4-diazepan-5-yl)methyl)-2-naphthamide] cannot be ordered by IC50: < 0.1 µM for the first, < 0.1 µM for the second.

`CC[C@H](CN1CC[C@@H](CNC(=O)c2ccc3cc(Cl)ccc3c2)N[C@@H](CCN2CCCCC2)C1=O)c1ccsc1` [Compound 511, 6-chloro-N-(((3S,5S)-2-oxo-3-(2-(piperidin-1-yl)ethyl)-1-((S)-2-(thiophen-3-yl)butyl)-1,4-diazepan-5-yl)methyl)-2-naphthamide] and `CC[C@@H](CN1CC[C@@H](CNC(=O)c2ccc3cc(Cl)ccc3c2)N[C@@H](CCN2CCCCC2)C1=O)c1ccccc1` [Compound 526, 6-chloro-N-(((3S,5S)-2-oxo-1-((R)-2-phenylbutyl)-3-(2-(piperidin-1-yl)ethyl)-1,4-diazepan-5-yl)methyl)-2-naphthamide] cannot be ordered by IC50: < 0.01 µM for the first, < 0.01 µM for the second.

`CCC(C)(CC)CN1CC[C@@H](CNC(=O)c2ccc3cc(Cl)ccc3c2)N[C@@H](CCN)C1=O` [Compound 512, N-(((3S,5S)-3-(2-aminoethyl)-1-(2-ethyl-2-methylbutyl)-2-oxo-1,4-diazepan-5-yl)methyl)-6-chloro-2-naphthamide] and `CCC(C)(CC)CN1CC[C@@H](CNC(=O)c2ccc3cc(Cl)ccc3c2)N[C@@H](CCN2CCCCC2)C1=O` [Compound 513, 6-chloro-N-(((3S,5S)-1-(2-ethyl-2-methylbutyl)-2-oxo-3-(2-(piperidin-1-yl)-ethyl)-1,4-diazepan-5-yl)methyl)-2-naphthamide] cannot be ordered by IC50: < 1 µM for the first, < 0.1 µM for the second.

`O=C(NC[C@@H]1CCN(CC(c2ccccc2)c2ccccc2)C(=O)[C@H](CCN2CCOCC2)N1)c1ccc2cc(Cl)ccc2c1` [Compound 514, 6-chloro-N-(((3S,5S)-1-(2,2-diphenylethyl)-3-(2-morpholinoethyl)-2-oxo-1,4-diazepan-5-yl)methyl)-2-naphthamide] and `CC[C@H](CN1CC[C@@H](CNC(=O)c2ccc3cc(Cl)ccc3c2)N[C@@H](CCN2CCOCC2)C1=O)c1ccccc1` [Compound 515, 6-chloro-N-(((3S,5S)-3-(2-morpholinoethyl)-2-oxo-1-((S)-2-phenylbutyl)-1,4-diazepan-5-yl)methyl)-2-naphthamide] cannot be ordered by IC50: < 0.1 µM for the first, < 0.1 µM for the second.

`CC[C@H](CN1CC[C@@H](CNC(=O)NCc2ccc(Cl)cc2)N[C@@H](CCN2CCCCC2)C1=O)c1ccccc1` [Compound 518] and `CC[C@H](CN1CC[C@@H](CNC(=O)c2ccc(Cl)cc2Cl)N[C@@H](CCN2CCCCC2)C1=O)c1ccccc1` [Compound 534, 2,4-dichloro-N-(((3S,5S)-2-oxo-1-((S)-2-phenylbutyl)-3-(2-(piperidin-1-yl)ethyl)-1,4-diazepan-5-yl)methyl)benzamide] cannot be ordered by IC50: < 1 µM for the first, < 0.01 µM for the second.

`CC[C@H](CN1CC[C@@H](CN(Cc2ccc(Cl)c(Cl)c2)C(C)=O)N[C@@H](CCN2CCCCC2)C1=O)c1ccccc1` [Compound 519] and `CC[C@H](CN1CC[C@@H](CNC(=O)c2cc(-c3ccc(Cl)cc3)on2)N[C@@H](CCN2CCCCC2)C1=O)c1ccccc1` [Compound 533, 5-(4-chlorophenyl)-N-(((3S,5S)-2-oxo-1-((S)-2-phenylbutyl)-3-(2-(piperidin-1-yl)ethyl)-1,4-diazepan-5-yl)methyl)isoxazole-3-carboxamide] cannot be ordered by IC50: < 10 µM for the first, < 0.01 µM for the second.

`CCC(C)(CC)CN1CC[C@@H](CNC(=O)c2ccc(Cl)c(Cl)c2)N[C@@H](CCN)C1=O` [Compound 520, N-(((3S,5S)-3-(2-aminoethyl)-1-(2-ethyl-2-methylbutyl)-2-oxo-1,4-diazepan-5-yl)methyl)-3,4-dichlorobenzamide] and `CCC(C)(CC)CN1CC[C@@H](CNC(=O)c2ccc(Cl)c(Cl)c2)N[C@@H](CCN2CCCCC2)C1=O` [Compound 521, 3,4-dichloro-N-(((3S,5S)-1-(2-ethyl-2-methylbutyl)-2-oxo-3-(2-(piperidin-1-yl)ethyl)-1,4-diazepan-5-yl)methyl)benzamide] cannot be ordered by IC50: < 10 µM for the first, < 0.1 µM for the second.

`O=C(NC[C@@H]1CCN(Cc2cc(Cl)cc(Cl)c2Cl)C(=O)[C@H](CCN2CCCCC2)N1)c1ccc2cc(Cl)ccc2c1` [Compound 522, 6-chloro-N-(((3S,5S)-2-oxo-3-(2-(piperidin-1-yl)ethyl)-1-(2,3,5-trichlorobenzyl)-1,4-diazepan-5-yl)methyl)-2-naphthamide] and `O=C(NC[C@@H]1CCN(Cc2cc(Cl)cc(Cl)c2)C(=O)[C@H](CCN2CCCCC2)N1)c1ccc(Cl)cc1Cl` [Compound 528, 2,4-dichloro-N-(((3S,5S)-1-(3,5-dichlorobenzyl)-2-oxo-3-(2-(piperidin-1-yl)ethyl)-1,4-diazepan-5-yl)methyl)benzamide] cannot be ordered by IC50: < 0.1 µM for the first, < 0.01 µM for the second.

`CC[C@H](CN1CC[C@@H](CNC(=O)c2ccc3cc(Cl)ccc3c2)N[C@@H](CCNS(=O)(=O)C(C)C)C1=O)c1ccccc1` [Compound 523, 6-chloro-N-(((3S,5S)-3-(2-(1-methylethylsulfonamido)ethyl)-2-oxo-1-((S)-2-phenylbutyl)-1,4-diazepan-5-yl)methyl)-2-naphthamide] and `CCCCOC(=O)NCC[C@@H]1N[C@H](CNC(=O)c2ccc3cc(Cl)ccc3c2)CCN(C[C@@H](CC)c2ccccc2)C1=O` [Compound 524, butyl 2-((2S,7S)-7-((6-chloro-2-naphthamido)methyl)-3-oxo-4-((S)-2-phenylbutyl)-1,4-diazepan-2-yl)ethylcarbamate] cannot be ordered by IC50: < 0.1 µM for the first, < 1 µM for the second.

`CC[C@H](CN1CCC(CNC(=O)c2ccc3cc(Cl)ccc3c2)NC(C2CCN(C(C)C)CC2)C1=O)c1ccccc1` (stereo partly drawn) [Compound 525, (S)-6-chloro-N-((3-(1-isopropylpiperidin-4-yl)-2-oxo-1-(2-phenylbutyl)-1,4-diazepan-5-yl)methyl)-2-naphthamide] and `COc1c(C(=O)NC[C@@H]2CCN(Cc3cc(Cl)cc(Cl)c3)C(=O)[C@H](CCN3CCCCC3)N2)ccc2ccccc12` [Compound 531, N-(((3S,5S)-1-(3,5-dichlorobenzyl)-2-oxo-3-(2-(piperidin-1-yl)ethyl)-1,4-diazepan-5-yl)methyl)-1-methoxy-2-naphthamide] cannot be ordered by IC50: < 0.1 µM for the first, < 0.1 µM for the second.

`O=C(NC[C@@H]1CCN(Cc2cc(Cl)cc(Cl)c2)C(=O)[C@H](CCN2CCCCC2)N1)c1cc(-c2ccc(Cl)cc2)on1` [Compound 527, 5-(4-chlorophenyl)-N-(((3S,5S)-1-(3,5-dichlorobenzyl)-2-oxo-3-(2-(piperidin-1-yl)ethyl)-1,4-diazepan-5-yl)methyl)isoxazole-3-carboxamide] and `O=C(/C=C/c1ccc(OC(F)(F)F)cc1)NC[C@@H]1CCN(Cc2cc(Cl)cc(Cl)c2)C(=O)[C@H](CCN2CCCCC2)N1` [Compound 532, (E)-N-(((3S,5S)-1-(3,5-dichlorobenzyl)-2-oxo-3-(2-(piperidin-1-yl)ethyl)-1,4-diazepan-5-yl)methyl)-3-(4-(trifluoromethoxy)phenyl)acrylamide] cannot be ordered by IC50: < 0.1 µM for the first, < 0.01 µM for the second.

`O=C1[C@H](CCN2CCCCC2)N[C@H](CN2C(=O)c3cc(Cl)c(Cl)cc3C2=O)CCN1Cc1cc(Cl)cc(Cl)c1` [Compound 535, 5,6-dichloro-2-(((3S,5S)-1-(3,5-dichlorobenzyl)-2-oxo-3-(2-(piperidin-1-yl)ethyl)-1,4-diazepan-5-yl)methyl)isoindoline-1,3-dione] and `O=C(/C=C/c1ccc(OC(F)(F)F)c(F)c1)NC[C@@H]1CCN(Cc2cc(Cl)cc(Cl)c2)C(=O)[C@H](CCN2CCCCC2)N1` [Compound 536, (E)-N-(((3S,5S)-1-(3,5-dichlorobenzyl)-2-oxo-3-(2-(piperidin-1-yl)ethyl)-1,4-diazepan-5-yl)methyl)-3-(3-fluoro-4-(trifluoromethoxy)phenyl)acrylamide] cannot be ordered by IC50: < 1 µM for the first, < 0.1 µM for the second.
